Measurements from US8093395B2 (priority 2007, dated 2012).
Like-named read-outs stand apart in the source and are kept apart here.

Legend:
Assay in all cases: biochemical
Type in all cases: biochemical
Settings in all cases: for activity at 1 µM: pH 5.5, read-out: Sphingomyelinase Activity (%)
Bacillus cereus-SMase [1] = target: T1, Bacillus cereus-SMase (Bacillus cereus, UniProt P11889)
Bacillus cereus-SMase [2] = target: T1, Bacillus cereus-SMase; remark: listed apart in the source
Description: Preparation of Sphingomyelin-Liposome (SM-Liposome)
The sphingomyelin (SM), cholesterol, and CF solution used were as follows:
SM: sphingomyelin from bovin brain, code: 32156-74
Cholesterol: Nakarai code: 08721-75
CF solution: 5(6)-carbosyfluorescein; SIGMA C8166, FW=460.4
About 100 μl of 1 N sodium hydroxide (NaOH) was added to CF (27 mg/3 ml, DW) to prepare a CF solution. At this time, NaOH was added to give a pH of 7 to 8 as measured by a pH test paper.
Liposome Preparation Method
59 μl of a solution obtained by dissolving 2 mg of sphingomyelin (SM) in 160 μl of a mixed solvent of chloroform (CHCl3) and methanol (MeOH) (CHCl3:MeOH=2:1) was mixed with 20 μl of a solution obtained by dissolving 19.3 mg of cholesterol in 1 ml of CHCl3; the mixture was homogeneously spread to the bottom of a glass test tube while the CHCl3 and MeOH were distilled under nitrogen, and dried in a desiccator for 30 minutes. The CF solution was warmed to 55° C., and 80 μl of the CF solution was added with stirring to the SM from which the solvent was distilled (the molar ratio of […]: 1:1), and a procedure of placing the mixture in a water bath at 55° C. and stirring the mixture was repeated three times at 30-second intervals. A suitable amount of TBS was added, the mixture was centrifuged for 20 minutes at 15,000 rpm and 4° C., and the supernatant was removed. A suspension of the resulting product in 300 μl of TBS was used as a liposome.
Experiment 2: Influence of Compound (1a) and Compound (1b) on SM-Liposome Degradation Activity of Bacillus cereus-SMase
(§1) (i) Solution of Compound (1a)
(§2) Compound (1a) was dissolved in MeOH and adjusted to 1.7 mM and 17 mM.
(§3) (ii) Solution of Compound (1b)
(§4) Compound (1b) was dissolved in MeOH and adjusted to 1.7 mM and 17 mM.
[Method] Bc-SMase (50 ng/ml) was mixed with the solution of Compound (1a) with each concentration or the solution of Compound (1b) with each concentration, and the mixture was adjusted with GTBS (pH 5.5) to a total volume of 180 μl and pre-treated for 10 minutes at 37° C., after which 20 μl of the SM-liposome was added to the resulting reaction mixture and incubated for 30 minutes at 37° C. The reaction mixture was measured using a fluorometer (Corona Electric Co., Ltd.; MTP32 Microplate Reader, Ex490, Em530).

Bacillus cereus-SMase [3] = target: T1, Bacillus cereus-SMase; remark: listed apart in the source
Description: Experiment 3: Influence of Compound (1a) and Compound (1b) on the ^14C-Sphingomyelin (^14C-Sphingomyelin) Decomposition Activity of Bacillus cereus-SMase
as §1, §2, §3, §4
(iii) Preparation of TX-Buffer
0.5 g of Triton X-100 was dissolved in 100 ml of 0.02 M TB.
[Method] 30 ng/ml Bacillus cereus-SMase was mixed with the solution of Compound (1a) with each concentration or the solution of Compound (1b) with each concentration, and the mixture was adjusted with TX-buffer (pH 5.5) to a total volume of 200 μl and pre-treated for 10 minutes at 37° C., after which 10 μl of ^14C-sphingomyelin was added to the reaction mixture, and the resulting mixture was incubated for 30 minutes at 37° C. 600 μl of a solvent to stop the reaction (stop solution; CHCl3:MeOH=1:2) was added to the reaction mixture and the resulting mixture was stirred for 30 seconds twice, and centrifuged for 20 minutes at 2,000 rpm, after which the upper layer was measured using a liquid scintillation counter.

T1 sequence (P11889 28-333): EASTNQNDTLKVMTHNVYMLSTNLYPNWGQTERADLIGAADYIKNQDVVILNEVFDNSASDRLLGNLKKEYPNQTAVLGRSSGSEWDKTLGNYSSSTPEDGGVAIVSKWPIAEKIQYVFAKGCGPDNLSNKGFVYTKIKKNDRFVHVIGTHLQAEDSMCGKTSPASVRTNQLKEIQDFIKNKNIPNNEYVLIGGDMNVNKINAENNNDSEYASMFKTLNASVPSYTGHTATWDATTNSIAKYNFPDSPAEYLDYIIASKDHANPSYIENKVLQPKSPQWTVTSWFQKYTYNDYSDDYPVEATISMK

Row | SMILES | sphingomyelinase activity was inhibited by (text summary of Table 1) (Bacillus cereus-SMase [1]; 100-μM solution, sheep erythrocyte hemolysis) | activity at 1 µM (Bacillus cereus-SMase [1]) [%] | inhibition of sphingomyelinase activity (text summary of Table 2) (Bacillus cereus-SMase [2]; 100-μM solution, SM-liposome degradation) | activity at 1 µM (Bacillus cereus-SMase [2]) [%] | sphingomyelinase activity was inhibited by (Table 3) (Bacillus cereus-SMase [3]; 100-μM solution, 14C-sphingomyelin decomposition) | activity at 1 µM (Bacillus cereus-SMase [3]) [%] | inhibitory effect compared with Compound (1a) (Bacillus cereus-SMase [1]; 1 to 100 μM, sheep erythrocyte hemolysis) | inhibitory effect compared with Compound (1a) (Bacillus cereus-SMase [2]; 1 to 100 μM, SM-liposome degradation) | inhibitory effect compared with Compound (1a) (Bacillus cereus-SMase [3]; 1 to 100 μM, 14C-sphingomyelin decomposition)
1 | CCCCCCCCCCCCC/C=C/[C@@H](O)C(COCc1cccc(-c2ccccn2)n1)NC(=O)CCCCC (stereo partly drawn) [Compound (1a)] | about 30% | 98.2 ± 1.4 | substantially completely inhibited | 99 ± 0.2 | about 25% | 98.6 ± 1.3 | – | – | –
2 | CCCCCCCCCCCCC/C=C/[C@@H](OCc1cccc(-c2ccccn2)n1)C(CO)NC(=O)CCCCC (stereo partly drawn) [Compound (1b)] | – | 96.2 ± 2.7 | – | 99.1 ± 0.3 | – | 98.2 ± 2.3 | did not show as potent an inhibitory effect as Compound (1a) | did not show as potent an inhibitory effect as Compound (1a) | did not show as potent an inhibitory effect as Compound (1a)
